According to patent US20260263425A1, “USE OF COMPOSITION CONTAINING CANDESARTAN OR AZILSARTAN” (GACHON UNIVERSITY OF INDUSTRY-ACADEMIC COOPERATION …, priority 2023, published 2026):

How the values were obtained:
AKT PH domain [1] = assay: Insulin-stimulated membrane localization of AKT PH domain in palmitic acid-treated HepG2 cells; format: cell-based, Human; details: 100 nM insulin 15 min, AKT PH mCherry
Description: One mechanism of insulin resistance is that, in the state of obesity and diabetes, an increase in the concentration of calcium in the cytoplasm leads to calcium binding to PI(3, 4, 5)P3 present in the cell membrane, generating Ca^2+-PI(3, 4, 5)P3, which inhibits binding to the PH domain of AKT and suppresses AKT protein activity, thereby inducing insulin resistance. Accordingly, it was evaluated whether azilsartan and candesartan, which were shown in the above examples to attenuate palmitic acid-induced intracellular Ca^2+ overload, regulate the intracellular localization of the AKT PH domain, which functions as a biosensor for PI(3, 4, 5)P3.
(§1) Specifically, CHO cells or HepG2 cells were transfected with cDNA encoding hAKT PHD (residues 1 to 144) using Lipofectamine (Life Technologies). To monitor the intracellular localization of endogenous AKT, liver sections were antigen activated with 10 mM Tris/HCl (pH 9.0) for 20 minutes, treated with serum-free protein blocking solution (DAKO) for 30 minutes, and permeabilized with 0.5% Tween 20 for 15 minutes. The liver sections were then incubated with anti-AKT PHD antibody (SKB1, #05-591, Sigma-Aldrich) and FITC-conjugated secondary antibody. After mounting, the liver sections were imaged with an LSM 980 laser scanning confocal microscope (Carl Zeiss), and the images were analyzed using ZEN software (Carl Zeiss).
When administering azilsartan or candesartan to cells, the impairment induced by palmitic acid was recovered.

HepG2 cells [2] = assay: Insulin-stimulated phosphorylation of Akt and downstream molecules in palmitic acid-treated HepG2 cells (immunoblot); format: cell-based, Human; details: HepG2, 0.5 mM palmitic acid 16 h, ARB 5, 10, 20 μM; dose-dependent
Description: Tissues and cells were lysed using a modified RIPA buffer (50 mM Tris-HCl pH 7.4, 1% Triton X-100, 150 mM NaCl, 1 mM EDTA; Cell Signaling Technology) freshly supplemented with 1 mM Na3VO4, […], and protease inhibitor cocktail (Complete Mini, Roche). Equal amounts of proteins were separated on 4-12% gels and electrophoretically transferred to polyvinylidene difluoride (PVDF) membranes. Immunoblots were visualized with horseradish peroxidase-conjugated secondary antibodies and enhanced chemiluminescence kits (ECL kits; GE Healthcare Life Sciences) using a charge-coupled device camera (Amersham ImageQuant 800). Specifically, nine FDA-approved ARBs (losartan, eprosartan, fimasartan, irbesartan, olmesartan, telmisartan, valsartan, azilsartan, and candesartan) commonly prescribed for the treatment of hypertension in human patients were administered to HepG2 cells at various concentrations (5 μM, 10 μM, and 20 μM) in combination with 0.5 mM palmitic acid for 16 hours. Then, the insulin-stimulated phosphorylation of the key insulin signaling molecule Akt and its downstream signaling molecules GSK3β and FOXO3 was investigated. The results of Example 1 indicate that azilsartan and candesartan have beneficial off-target effects on insulin signaling and intracellular Ca^2+ homeostasis that are distinct from their known effects as angiotensin receptor blockers. […]

HepG2 cells [3] = assay: Intracellular Ca2+ level and lipid accumulation in palmitic acid-treated HepG2 cells (confocal microscopy, fluorescent dyes); format: cell-based, Human; details: for lipid accumulation: palmitic acid-treated HepG2, BODIPY; for fluorescence intensity for intracellular Ca2+: palmitic acid-treated HepG2, Calbryte 630 AM
Description: Subsequently, to determine whether ARBs can regulate intracellular Ca^2+ levels and lipid accumulation in HepG2 cells treated with palmitic acid, the effects of ARBs were evaluated using confocal microscopy and the fluorescent dyes Calbryte 630 AM (for intracellular Ca^2+) and BODIPY (for lipids).
Specifically, for intracellular Ca^2+ concentration and lipid accumulation, HepG2 cells were plated on slide glasses, treated with 0.5 mM palmitic acid for 16 hours, and incubated with 4 μM Fura-2-AM (Teflabs), […] Calbryte 630 AM, or […] BODIPY in PBS for 30 minutes at 37° C. in the dark. The cells were then washed with PBS for 10 minutes. Subsequently, the cells were counterstained with 4,6-diamidino-2-phenylindole (DAPI) to visualize nuclei. After mounting, the stained slides were imaged using a Zeiss LSM 700 or Zeiss LSM 980 laser scanning confocal microscope (Carl Zeiss) and analyzed using ZEN 2010 Software (Carl Zeiss). Intracellular Ca^2+ was quantified from the microscopic images using the NIH ImageJ software (https://imagej.nih.gov/ij/, 1997-2017). […]

AKT PH domain [4] = assay: Insulin-stimulated membrane localization of AKT PH domain in PMA-treated CHO-IR cells; format: cell-based, Chinese hamster
Description: as §1, with “Zeiss). Similarly, in phorbol myristate acetate (PMA)-treated Chinese hamster ovary-insulin receptor (CHO-IR) cells, it was confirmed that insulin-stimulated membrane localization of the AKT PH domain was rescued by treatment with azilsartan or candesartan (FIG. 3b).” for “Zeiss).”

HFD-fed mice = assay: Postprandial phosphorylation of AKT and downstream substrates in HFD-fed mice; format: in vivo; details: fasted overnight, re-fed HFD 4 hours
Description: Tissues and cells were lysed using a modified RIPA buffer (50 mM Tris-HCl pH 7.4, 1% Triton X-100, 150 mM NaCl, 1 mM EDTA; Cell Signaling Technology) freshly supplemented with 1 mM Na3VO4, […], and protease inhibitor cocktail (Complete Mini, Roche). Equal amounts of proteins were separated on 4-12% gels and electrophoretically transferred to polyvinylidene difluoride (PVDF) membranes. Immunoblots were visualized with horseradish peroxidase-conjugated secondary antibodies and enhanced chemiluminescence kits (ECL kits; GE Healthcare Life Sciences) using a charge-coupled device camera (Amersham ImageQuant 800). To elucidate the role of candesartan on insulin signaling in vivo, mice were fasted overnight and then re-fed an HFD for 4 hours, and postprandial phosphorylation of AKT and its downstream signaling substrates FOXO1A, FOXO3A, GSK3B, and AS160 was measured.

| Structure (SMILES) | palmitic acid-induced impairment of insulin-stimulated membrane localization of the AKT PH domain (AKT PH domain [1]) | insulin-stimulated phosphorylation of Akt, GSK3B, and FOXO3 (HepG2 cells [2]) | lipid accumulation (HepG2 cells [3]) | fluorescence intensity for intracellular Ca2+ (HepG2 cells [3]) | insulin-stimulated membrane localization of the AKT PH domain (AKT PH domain [4]) | postprandial phosphorylation of AKT, FOXO1A, FOXO3A, GSK3B, and AS160, increase compared to the control group (HFD-fed mice) |
| --- | --- | --- | --- | --- | --- | --- |
| CCOc1nc2cccc(C(=O)O)c2n1Cc1ccc(-c2ccccc2-c2nc(=O)o[nH]2)cc1 [azilsartan] | recovered | completely restored | significantly reduced | significantly reduced | rescued |  |
| CCOc1nc2cccc(C(=O)O)c2n1Cc1ccc(-c2ccccc2-c2nnn[nH]2)cc1 [candesartan] |  |  |  |  |  | 4- to 10 fold |
| CCCCc1ncc(/C=C(\Cc2cccs2)C(=O)O)n1Cc1ccc(C(=O)O)cc1 [eprosartan] | did not rescue |  | did not significantly affect | did not significantly affect |  |  |
| CCCCC1=NC2(CCCC2)C(=O)N1Cc1ccc(-c2ccccc2-c2nnn[nH]2)cc1 [irbesartan] | did not rescue |  | did not significantly affect | did not significantly affect |  |  |
| CCCCc1nc(Cl)c(CO)n1Cc1ccc(-c2ccccc2-c2nn[nH]n2)cc1 [losartan] | did not rescue |  | did not significantly affect | did not significantly affect |  |  |
| CCCc1nc2c(C)cc(-c3nc4ccccc4n3C)cc2n1Cc1ccc(-c2ccccc2C(=O)O)cc1 [telmisartan] | did not rescue |  | did not significantly affect | did not significantly affect |  |  |
